# Measurements as given in patent US12491170B2, “Stable treprostinil prodrugs” (United Therapeutics Corporation, priority 2020, dated 2025).
# Read-outs that look alike come from different tables or passages of the source.
# What was measured:
# [1] = Stability in liver microsomes, human; conditions: for AUC: human
# [2] = Stability in liver microsomes, rat
# [3] = Stability in liver microsomes, dog
# [4] = Stability in cryopreserved hepatocytes, human; conditions: for AUC: human
# [5] = Stability in cryopreserved hepatocytes, rat; conditions: for AUC: rat
# [6] = Stability in cryopreserved hepatocytes, dog; conditions: for AUC: dog
# [7] = Stability in human subcutaneous skin homogenate; conditions: for AUC: human
# [8] = rat
# [9] = dog
smiles,measurement,setting,value
CCCCCC(CCC1C(O)CC2Cc3c(cccc3OCC(=O)O)CC21)OC(=O)C(C)C (stereo not drawn) [LXVII],Trep Concentration 0 min,[1],1.02 µM
same,Trep Concentration 10 min,[1],0.877 µM
same,Trep Concentration 20 min,[1],0.755 µM
same,Trep Concentration 30 min,[1],0.664 µM
same,Trep Concentration 60 min,[1],0.393 µM
same,AUC,[1],40.60 µmol·min/L
same,Trep Concentration 0 min,[2],0.281 µM
same,Trep Concentration 10 min,[2],0.369 µM
same,Trep Concentration 20 min,[2],0.419 µM
same,Trep Concentration 30 min,[2],0.471 µM
same,Trep Concentration 60 min,[2],0.433 µM
same,Trep Concentration 0 min,[3],0.987 µM
same,Trep Concentration 10 min,[3],0.972 µM
same,Trep Concentration 20 min,[3],0.982 µM
same,Trep Concentration 30 min,[3],0.993 µM
same,Trep Concentration 60 min,[3],0.816 µM
same,Trep Concentration (μM) 0 min,[4],0.0174 µM
same,Trep Concentration (μM) 15 min,[4],0.631 µM
same,Trep Concentration (μM) 30 min,[4],0.572 µM
same,Trep Concentration (μM) 60 min,[4],0.506 µM
same,Trep Concentration (μM) 120 min,[4],0.446 µM
same,AUC,[4],58.62 µmol·min/L
same,Trep Concentration (μM) 0 min,[5],0 µM
same,Trep Concentration (μM) 15 min,[5],0.215 µM
same,Trep Concentration (μM) 30 min,[5],0.217 µM
same,Trep Concentration (μM) 60 min,[5],0.189 µM
same,Trep Concentration (μM) 120 min,[5],0.172 µM
same,AUC,[5],21.77 µmol·min/L
same,Trep Concentration (μM) 0 min,[6],0.09 µM
same,Trep Concentration (μM) 15 min,[6],0.616 µM
same,Trep Concentration (μM) 30 min,[6],0.554 µM
same,Trep Concentration (μM) 60 min,[6],0.459 µM
same,Trep Concentration (μM) 120 min,[6],0.42 µM
same,AUC,[6],55.64 µmol·min/L
same,Trep Concentration 0 min,[7],0 µM
same,Trep Concentration 30 min,[7],0.224 µM
same,Trep Concentration 60 min,[7],0.408 µM
same,Trep Concentration 120 min,[7],0.657 µM
same,AUC,[7],44.79 µmol·min/L
same,AUC,[8],25.20 µmol·min/L
same,AUC,[9],56.58 µmol·min/L
CCCCCC(CCC1C(O)CC2Cc3c(cccc3OCC(=O)O)CC21)OP(=O)(O)O (stereo not drawn) [VI],Trep Concentration 0 min,[1],0.02 µM
same,Trep Concentration 10 min,[1],0.038 µM
same,Trep Concentration 20 min,[1],0.038 µM
same,Trep Concentration 30 min,[1],0.03 µM
same,Trep Concentration 60 min,[1],0.061 µM
same,AUC,[1],2.38 µmol·min/L
same,Trep Concentration 0 min,[2],0.27 µM
same,Trep Concentration 10 min,[2],0.39 µM
same,Trep Concentration 20 min,[2],0.46 µM
same,Trep Concentration 30 min,[2],0.53 µM
same,Trep Concentration 60 min,[2],0.73 µM
same,Trep Concentration 0 min,[3],0.21 µM
same,Trep Concentration 10 min,[3],0.32 µM
same,Trep Concentration 20 min,[3],0.43 µM
same,Trep Concentration 30 min,[3],0.48 µM
same,Trep Concentration 60 min,[3],0.75 µM
same,Trep Concentration (μM) 0 min,[4],0 µM
same,Trep Concentration (μM) 15 min,[4],0.223 µM
same,Trep Concentration (μM) 30 min,[4],0.365 µM
same,Trep Concentration (μM) 60 min,[4],0.466 µM
same,Trep Concentration (μM) 120 min,[4],0.540 µM
same,AUC,[4],48.73 µmol·min/L
same,Trep Concentration (μM) 0 min,[5],0.128 µM
same,Trep Concentration (μM) 15 min,[5],0.693 µM
same,Trep Concentration (μM) 30 min,[5],0.635 µM
same,Trep Concentration (μM) 60 min,[5],0.564 µM
same,Trep Concentration (μM) 120 min,[5],0.53 µM
same,AUC,[5],66.92 µmol·min/L
same,Trep Concentration (μM) 0 min,[6],0.0124 µM
same,Trep Concentration (μM) 30 min,[6],0.609 µM
same,Trep Concentration (μM) 60 min,[6],0.533 µM
same,Trep Concentration (μM) 120 min,[6],0.548 µM
same,AUC,[6],62.94 µmol·min/L
same,Trep Concentration 0 min,[7],0 µM
same,Trep Concentration 30 min,[7],0.6 µM
same,Trep Concentration 60 min,[7],0.93 µM
same,Trep Concentration 120 min,[7],1.07 µM
same,AUC,[7],91.95 µmol·min/L
same,AUC,[8],31.40 µmol·min/L
same,AUC,[9],29.40 µmol·min/L
CCCCCC(CCC1C(O)CC2Cc3c(cccc3OCC(=O)O)CC21)OC(N)=O (stereo not drawn) [XLII],Trep Concentration 0 min,[1],0.361 µM
same,Trep Concentration 10 min,[1],0.297 µM
same,Trep Concentration 20 min,[1],0.293 µM
same,Trep Concentration 30 min,[1],0.273 µM
same,Trep Concentration 60 min,[1],0.219 µM
same,AUC,[1],16.45 µmol·min/L
same,Trep Concentration 0 min,[2],0.322 µM
same,Trep Concentration 10 min,[2],0.296 µM
same,Trep Concentration 20 min,[2],0.314 µM
same,Trep Concentration 30 min,[2],0.308 µM
same,Trep Concentration 60 min,[2],0.29 µM
same,Trep Concentration 0 min,[3],0.335 µM
same,Trep Concentration 10 min,[3],0.312 µM
same,Trep Concentration 20 min,[3],0.311 µM
same,Trep Concentration 30 min,[3],0.308 µM
same,Trep Concentration 60 min,[3],0.323 µM
same,Trep Concentration (μM) 0 min,[4],0.297 µM
same,Trep Concentration (μM) 15 min,[4],0.274 µM
same,Trep Concentration (μM) 30 min,[4],0.298 µM
same,Trep Concentration (μM) 60 min,[4],0.275 µM
same,Trep Concentration (μM) 120 min,[4],0.217 µM
same,AUC,[4],31.93 µmol·min/L
same,Trep Concentration (μM) 0 min,[5],0.33 µM
same,Trep Concentration (μM) 15 min,[5],0.309 µM
same,Trep Concentration (μM) 30 min,[5],0.299 µM
same,Trep Concentration (μM) 60 min,[5],0.307 µM
same,Trep Concentration (μM) 120 min,[5],0.3 µM
same,AUC,[5],36.65 µmol·min/L
same,Trep Concentration (μM) 0 min,[6],0.296 µM
same,Trep Concentration (μM) 15 min,[6],0.242 µM
same,Trep Concentration (μM) 30 min,[6],0.197 µM
same,Trep Concentration (μM) 60 min,[6],0.155 µM
same,Trep Concentration (μM) 120 min,[6],0.137 µM
same,AUC,[6],21.37 µmol·min/L
same,Trep Concentration 0 min,[7],0 µM
same,Trep Concentration 30 min,[7],0 µM
same,Trep Concentration 60 min,[7],0 µM
same,Trep Concentration 120 min,[7],0 µM
same,AUC,[7],0.00 µmol·min/L
same,AUC,[8],18.22 µmol·min/L
same,AUC,[9],18.91 µmol·min/L
CCCCCC(CCC1C(O)CC2Cc3c(cccc3OCC(=O)O)CC21)OC(=O)CO (stereo not drawn) [XLIV],Trep Concentration 0 min,[1],0.624 µM
same,Trep Concentration 10 min,[1],0.632 µM
same,Trep Concentration 20 min,[1],0.549 µM
same,Trep Concentration 30 min,[1],0.52 µM
same,Trep Concentration 60 min,[1],0.307 µM
same,AUC,[1],29.94 µmol·min/L
same,Trep Concentration 0 min,[2],0.0772 µM
same,Trep Concentration 10 min,[2],0.114 µM
same,Trep Concentration 20 min,[2],0.157 µM
same,Trep Concentration 30 min,[2],0.197 µM
same,Trep Concentration 60 min,[2],0.284 µM
same,Trep Concentration 0 min,[3],0.913 µM
same,Trep Concentration 10 min,[3],0.884 µM
same,Trep Concentration 20 min,[3],0.828 µM
same,Trep Concentration 30 min,[3],0.894 µM
same,Trep Concentration 60 min,[3],0.899 µM
same,Trep Concentration (μM) 0 min,[4],0.0377 µM
same,Trep Concentration (μM) 15 min,[4],0.406 µM
same,Trep Concentration (μM) 30 min,[4],0.534 µM
same,Trep Concentration (μM) 60 min,[4],0.553 µM
same,Trep Concentration (μM) 120 min,[4],0.506 µM
same,AUC,[4],58.45 µmol·min/L
same,Trep Concentration (μM) 0 min,[5],0.0352 µM
same,Trep Concentration (μM) 15 min,[5],0.186 µM
same,Trep Concentration (μM) 30 min,[5],0.307 µM
same,Trep Concentration (μM) 60 min,[5],0.393 µM
same,Trep Concentration (μM) 120 min,[5],0.514 µM
same,AUC,[5],43.07 µmol·min/L
same,Trep Concentration (μM) 0 min,[6],0.0501 µM
same,Trep Concentration (μM) 15 min,[6],0.587 µM
same,Trep Concentration (μM) 30 min,[6],0.545 µM
same,Trep Concentration (μM) 60 min,[6],0.475 µM
same,Trep Concentration (μM) 120 min,[6],0.404 µM
same,AUC,[6],54.94 µmol·min/L
same,Trep Concentration 0 min,[7],0 µM
same,Trep Concentration 30 min,[7],0.0277 µM
same,Trep Concentration 60 min,[7],0.0597 µM
same,Trep Concentration 120 min,[7],0.106 µM
same,AUC,[7],6.70 µmol·min/L
same,AUC,[8],11.30 µmol·min/L
same,AUC,[9],53.05 µmol·min/L
CCCCCC(CCC1C(O)CC2Cc3c(cccc3OCC(=O)O)CC21)OC(=O)C(C)(C)C (stereo not drawn) [XLIX],Trep Concentration 0 min,[1],0.137 µM
same,Trep Concentration 10 min,[1],0.171 µM
same,Trep Concentration 20 min,[1],0.174 µM
same,Trep Concentration 30 min,[1],0.163 µM
same,Trep Concentration 60 min,[1],0.125 µM
same,AUC,[1],9.27 µmol·min/L
same,Trep Concentration 0 min,[2],0 µM
same,Trep Concentration 10 min,[2],0.00512 µM
same,Trep Concentration 20 min,[2],0.00637 µM
same,Trep Concentration 30 min,[2],0.009 µM
same,Trep Concentration 60 min,[2],0.0074 µM
same,Trep Concentration 0 min,[3],0.17 µM
same,Trep Concentration 10 min,[3],0.325 µM
same,Trep Concentration 20 min,[3],0.433 µM
same,Trep Concentration 30 min,[3],0.451 µM
same,Trep Concentration 60 min,[3],0.558 µM
same,Trep Concentration (μM) 0 min,[4],0 µM
same,Trep Concentration (μM) 15 min,[4],0.192 µM
same,Trep Concentration (μM) 30 min,[4],0.179 µM
same,Trep Concentration (μM) 60 min,[4],0.217 µM
same,Trep Concentration (μM) 120 min,[4],0.237 µM
same,AUC,[4],23.78 µmol·min/L
same,Trep Concentration (μM) 0 min,[5],0 µM
same,Trep Concentration (μM) 15 min,[5],0.00943 µM
same,Trep Concentration (μM) 30 min,[5],0.0122 µM
same,Trep Concentration (μM) 60 min,[5],0.0182 µM
same,Trep Concentration (μM) 120 min,[5],0.0273 µM
same,AUC,[5],2.05 µmol·min/L
same,Trep Concentration (μM) 0 min,[6],0 µM
same,Trep Concentration (μM) 15 min,[6],0.0727 µM
same,Trep Concentration (μM) 30 min,[6],0.111 µM
same,Trep Concentration (μM) 60 min,[6],0.19 µM
same,Trep Concentration (μM) 120 min,[6],0.258 µM
same,AUC,[6],19.88 µmol·min/L
same,Trep Concentration 0 min,[7],0 µM
same,Trep Concentration 30 min,[7],0.0159 µM
same,Trep Concentration 60 min,[7],0.0303 µM
same,Trep Concentration 120 min,[7],0.0592 µM
same,AUC,[7],3.62 µmol·min/L
same,AUC,[8],0.41 µmol·min/L
same,AUC,[9],25.82 µmol·min/L
